Columns and labels:
[1] = tested on: Zebrafish embryo; assay: Zebrafish embryo drug toxicity assay; type: in vivo; settings: embryos 48 hpf, 34°C, imaged at 72 hpf and 120 hpf; APR-246 range 10-200 µM, Vorinostat range 2.5-100 µM
Description: The toxicity of the compounds was assessed before performing in vivo experiments and a Maximum Tolerated Dose (MTD) was determined. Embryos (48 hpf) were transferred to 48-well uncoated plates (Corning) containing different concentrations of the compounds and a solvent control. The stock solution of the compounds was further dissolved in E3 buffer supplemented with 0.2mM 1-phenyl-2- thiourea (PTU, Sigma) in order to reach the desired concentrations. Three embryos were tested per concentration or solvent control. Embryos were kept at 34°C during the experiment and were imaged at 72 hpf and 120 hpf using a stereo microscope (Leica). The embryos were assessed for signs of toxicity, like death, morphology changes (curvature of body, edema) and behavioral changes. APR-246 concentration range tested: 10-200 µM, MTD: 50µM; solvent control: DMSO (0.2% and 0.5%); Vorinostat concentration range tested: 2.5-100 µM, no toxicity detected (MTD: 100µM); solvent control: DMSO (0.1%).

[2] = Clinical plasma pharmacokinetics (background); type: in vivo; settings: estimated from Cmax and half-life
[3] = tested on: p53 target genes CDKN1A, PUMA and GADD45A; assay: Real-time PCR of p53 pathway activation in IMR-32; type: cell-based; settings: IMR-32 (TP53-wt), 24 h
Description: (§1) Real-time PCR was performed as described previously (Fischer et al., J Mol Diagn 2005, 7, 89-96; Witt et al., Blood 2003, 101, 2001-2007). The following primers were purchased from ThermoFisher Scientific: CDKN1A (p21^WAF1/^CIP1, forward: 5'-TGGAGACTCTCAGGGTCGAAA-3'(SEQ ID NO:1), reverse: 5'-GGCGTTTGGAGTGGTAGAAATC-3'(SEQ ID NO.2)), HPRT (forward: 5'-TGACACTGGCAAAACAATGCA-3'(SEQ ID NO:3), reverse: 5'-GGTCCTTTTCACCAGCAAGCT-3'(SEQ ID NO:4)), SDHA (forward: 5'-TGGGAACAAGAGGGCATCTG-3'(SEQ ID NO:5), reverse: 5'-CCACCACTGCATCAAATTCATG-3'(SEQ ID NO:6)), and PUMA (forward: 5'-CCTGGAGGGTCCTGTACAATCT-3'(SEQ ID NO:7), reverse: 5'-GCACCTAATTGGGCTCCATCT-3'(SEQ ID NO:8)). The primer for GADD45A was purchased from Qiagen, Hilden, Germany (QT00014084). The delta-delta-Ct method was used to calculate the relative expression, and normalization was performed to neuroblastoma specific housekeeping genes SDHA and HPRT (Fischer et al., J Mol Diagn 2005, 7, 89-96).

[4] = tested on: p53 target gene expression; assay: Real-time PCR of p53 pathway activation in SK-N-BE(2)-C; type: cell-based; settings: SK-N-BE(2)-C (C135F), 24 h
Description: as §1

[5] = tested on: p53 target gene expression (CDKN1A and GADD45A); assay: Real-time PCR of p53 pathway activation in SJ-GBM2; type: cell-based; settings: APR-246 treatment
Description: as §1

[6] = tested on: p53 target gene expression (CDKN1A and GADD45A); assay: Real-time PCR of p53 pathway activation in SF188; type: cell-based; settings: APR-246 treatment
Description: as §1

[7] = tested on: IMR-32 cells; assay: Flow cytometry: ROS (DCFDA) and lipid peroxidation (BODIPY); type: cell-based; settings: IMR-32, 50 µM APR-246 for 5 h vs solvent control (DMSO), FACS
Description: Flow Cytometry was applied to analyze the lipid peroxidation (BODIPY staining) and to detect ROS (DCFDA staining). BODIPY 581/591 C11 Lipid peroxidation sensor staining (stock concentration: 20 mM in dimethylformamide, Invitrogen, Thermo Fisher Scientific) was used at a working concentration of 20 µM, and was diluted with RPMI without phenol red (Gibco). After inspection, the cells were detached, centrifuged and stained for 20 minutes at 37°C in a 500 µl staining solution. After centrifugation, cells were resuspended in 300 µl RPMI without phenol red, supplemented with 10% FCS. Fluorescence was measured in a FACSCanto II (BD) with 488 nm excitation and detected using a 502 nm longpass and 530/30 nm bandpass filter. Data were analyzed using FlowJo 10.x.
ROS detection was performed as previously described (Oehme et al., Proc Natl Acad Sci U S A 2013, 110, E2592-2601).

[8] = tested on: vincristine resistant SK-N-BE(2)-C; assay: Metabolic activity assay (CellTiter-Glo), vincristine resistant cells; type: cell-based; settings: vincristine resistant vs non-resistant control SK-N-BE(2)-C; 72 h, APR-246 0 - 30 µM
Description: Vincristine resistant and non-resistant SK-N-BE(2)-C (passage 30 to 45, kindly provided by M. Michaelis, University of Kent, and J. Cinatl, Goethe University, Frankfurt am Main) were cultured using IMDM with L-Glutamine, 2mM HEPES (Gibco) supplemented with 10% FCS; for the resistant cells, 20 ng/ml vincristine was added to the medium. The cells were made to be resistant to vincristine-treatment through long-term cultivation in a vincristine containing medium.
If not otherwise declared, cells were precultured for 72 h at a density of 2,000,000 cells per T75 flask (exceptions: Kelly, NB1 and IMR-32 4,000,000 per T75 flask, SJ-GBM2 1,000,000 per T75 flask). Cells were detached with trypsin-EDTA (ThermoFisher Scientific) and seeded in 96-well plates (Greiner, Microplate, 96-Well, PS, F-bottom µCLEAR®, CELLSTAR®) in 100 µl medium per well at a density of 5,000 (KNS-42, SJ-GBM2, SF188, SK-N-BE(2)-C) or 10,000 (IMR-32, NB1, Kelly) cells/well. HDAC-inhibitor screenings were performed accordingly in 384-well plates (Greiner, Microplate, 384-Well, PS, F-bottom µCLEAR®, CELLSTAR®) in 20 µl medium per well at a density of 1,250 (SK-N-BE(2)-C, SK-N-AS) or 2,500 (IMR-32) cells/well. […] Cell viability was quantified using CellTiter-Glo® 2.0 kit (Promega, Madison, USA). […] Bioluminescence was quantified on an OPTIMA plate reader (BMG Labtech, Ortenberg, Germany).

[9] = clinical; cited from earlier work
[10] = tested on: IMR-32; assay: Metabolic activity assay (CellTiter-Glo); type: cell-based; settings: for IC50: IMR-32
Description: (§2) If not otherwise declared, cells were precultured for 72 h at a density of 2,000,000 cells per T75 flask (exceptions: Kelly, NB1 and IMR-32 4,000,000 per T75 flask, SJ-GBM2 1,000,000 per T75 flask). Cells were detached with trypsin-EDTA (ThermoFisher Scientific) and seeded in 96-well plates (Greiner, Microplate, 96-Well, PS, F-bottom µCLEAR®, CELLSTAR®) in 100 µl medium per well at a density of 5,000 (KNS-42, SJ-GBM2, SF188, SK-N-BE(2)-C) or 10,000 (IMR-32, NB1, Kelly) cells/well. HDAC-inhibitor screenings were performed accordingly in 384-well plates (Greiner, Microplate, 384-Well, PS, F-bottom µCLEAR®, CELLSTAR®) in 20 µl medium per well at a density of 1,250 (SK-N-BE(2)-C, SK-N-AS) or 2,500 (IMR-32) cells/well. To avoid edge effects, margin wells (row A and H, column 1 and 12) contained PBS or medium and medium-containing wells were used as background controls. After 24 h incubation, cells were treated for 72 h. Drugs were applied using a Tecan D300e drug printer. Cell viability was quantified using CellTiter-Glo® 2.0 kit (Promega, Madison, USA). 50 µl CellTiter-Glo® (96-well) or 25 µl CellTiter-Glo® (384-well) were added to every well, the plates were shaken at 400 rpm for 5 min and were then incubated for another 10 min. Bioluminescence was quantified on an OPTIMA plate reader (BMG Labtech, Ortenberg, Germany).
(§3) All cell culture experiments were performed in triplicate. A two-tailed t-test, unpaired or paired, or ANOVA where appropriate, were performed using software program R (R version 3.2.2, 2015; The R Foundation for Statistical Computing). The packages tidyverse, janitor, readxl, writxl, ROCR, ggplot2 and ggsignif were used to calculate and plot the data. P-values of less than 0.05 were considered significant (^∗p < 0.05, ^∗∗p < 0.01, ^∗∗∗p < 0.001). IC50 values were calculated using GraphPad Prism Version 9.1.0 (GraphPad Software). Synergistic interactions were analyzed with SynergyFinder using the HSA (highest single agent) reference model, as the assumptions of other models were not fulfilled.

[11] = tested on: SK-N-BE(2)-C; assay: Metabolic activity assay (CellTiter-Glo); type: cell-based; settings: for IC50: SK-N-BE(2)-C
Description: as §2, §3

[12] = tested on: SK-N-AS; assay: Metabolic activity assay (CellTiter-Glo); type: cell-based
Description: as §2, with “HDAC-inhibitor screenings were performed accordingly in 384-well plates (Greiner, Microplate, 384-Well, PS, F-bottom µCLEAR®, CELLSTAR®) in 20 µl medium per well at a density of 1,250 (SK-N-BE(2)-C, SK-N-AS) or 2,500 (IMR-32) cells/well.” left out
as §3, with “A two-tailed t-test, unpaired or paired, or ANOVA where appropriate, were performed using software program R (R version 3.2.2, 2015; The R Foundation for Statistical Computing).” left out

[13] = tested on: SF188; assay: Metabolic activity assay (CellTiter-Glo); type: cell-based; settings: doxorubicin combined with APR-246
Description: as §2, §3

[14] = tested on: SJ-GBM2; assay: Metabolic activity assay (CellTiter-Glo); type: cell-based; settings: doxorubicin combined with APR-246
Description: as §2, §3

[15] = Homo sapiens, HDAC inhibitor alone, 72 h, 384-well
[16] = HDAC inhibitor alone, 72 h, 384-well

Row | IC50 [11, 16] [nM] | IC50 ([12]; HDAC inhibitor + APR-246 20 µM) [nM] | IC50 [12, 15] [nM] | SMILES | Maximum Tolerated Dose (MTD) [1] [µM] | IC50 [10, 15] [nM] | IC50 ([10]; HDAC inhibitor + APR-246 2 µM) [nM] | IC50 ([11]; HDAC inhibitor + APR-246 10 µM) [nM] | further results
1 |  |  |  | COCC1(CO)C(=O)C2CCN1CC2 (stereo not drawn) [APR-246, 2-(Hydroxymethyl)-2-(methoxymethyl)-1-azabicyclo[2.2.2]octan-3-one] | 50 |  |  |  | estimated trough plasma concentration [2]: 15 to 20 µM; p53 target gene expression ([3]; APR-246 added to doxorubicin vs doxorubicin only): did not increase target gene expression; p53 target gene induction ([4]; APR-246 added to doxorubicin): did not improve p53 target gene induction; p53 target gene expression (CDKN1A and GADD45A) [5]: no reactivation; p53 target gene expression (CDKN1A and GADD45A) [6]: no reactivation; ROS formation and lipid peroxidation [7]: increased ROS formation and lipid peroxidation; APR-246 sensitivity (metabolic activity) [8]: increased APR-246 sensitivity; half-life [9]: four to five; maximum plasma concentration [9]: approximately 280 µM
2 | 172 | 15.4 | 46.3 | CN(C)Cc1c(C(=O)NCCOc2ccc(C(=O)NO)cc2)oc2ccccc12 [abexinostat, 3-[(Dimethylamino)methyl]-N-{2-[4-(hydroxycarbamoyl)phenoxy]ethyl}-1-benzofuran-2-carboxamide] |  | 100 | 30.4 | 37.5 | 
3 |  |  |  | COc1cccc2c1C(=O)c1c(O)c3c(c(O)c1C2=O)C[C@@](O)(C(=O)CO)C[C@@H]3O[C@H]1C[C@H](N)[C@H](O)[C@H](C)O1 [doxorubicin] |  |  |  |  | doxorubicin sensitivity (metabolic activity) ([10]; IMR-32 (TP53-wt), fixed APR-246 concentration with different doses of doxorubicin): increased doxorubicin sensitivity; cell viability [13]: decreased cell viability; cell viability [14]: decreased cell viability; doxorubicin sensitivity (metabolic activity) ([11]; doxorubicin resistant TP53-mutant SK-B-BE(2)-C, fixed APR-246 concentration with different doses of doxorubicin): increased doxorubicin sensitivity; p53 target genes CDKN1A, PUMA and GADD45A expression ([3]; doxorubicin single-treatment): upregulation; p53 target gene expression ([4]; doxorubicin single treatment): failed to activate p53 target gene expression
4 | 40.2 | 1 | 2.2 | Cc1[nH]c2ccccc2c1CCNCc1ccc(/C=C/C(=O)NO)cc1 [panobinostat, (2E)-N-hydroxy-3-[4-({[2-(2-methyl-1H-indol-3-yl)ethyl]amino}methyl)phenyl]acrylamide] |  | 35.6 | 13.9 |  | IC50 ([11]; HDAC inhibitor + APR-246 20 µM): 3.1 nM
5 |  |  |  | O=C(CCCCCCC(=O)Nc1ccccc1)NO [vorinostat, N-Hydroxy-N'-phenyloctanediamide] | 100 |  |  |  | HSA synergy score ([12]; 72 h co-treatment of vorinostat (0-10 µM) with APR-246 (0, 15, 30, 45 µM), SynergyFinder HSA model): 12.17

Row | SMILES | IC50 [11, 16] [nM] | IC50 ([12]; HDAC inhibitor + APR-246 20 µM) [nM] | IC50 [12, 15] [nM] | Maximum Tolerated Dose (MTD) [1] [µM] | IC50 [10, 15] [nM] | IC50 ([10]; HDAC inhibitor + APR-246 2 µM) [nM] | IC50 ([11]; HDAC inhibitor + APR-246 10 µM) [nM] | further results
6 | C/C=C1\NC(=O)[C@H]2CSSCC/C=C/[C@H](CC(=O)N[C@H](C(C)C)C(=O)N2)OC(=O)[C@H](C(C)C)NC1=O [romidepsin] | 26.9 | 1.8 | 5.7 |  | 0.73 |  | 9.9 | IC50 ([10]; HDAC inhibitor + APR-246 1 µM): 0.24 nM

— patent EP4134671A1, “METHYLENE QUINUCLIDINONE COMPANION DIAGNOSTICS” (Deutsches Krebsforschungszentrum Stiftung des öffentlichen …, priority 2021, dated 2023)
